According to ChEMBL document CHEMBL1201862, “PubChem BioAssay data set” (2004):
Where “and” joins values, the source holds several entries; their conditions need not be identical. Equal entries are not always repeated.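 48-hour exposure; five concentrations; linearly interpolated endpoints. GI50 = concentration required for 50% inhibition of growth.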 Calls of active or inactive are those of the source. Rule as the data show it: active = GI50 up to about 1.1 µM and inactive = higher.

Key:
Test in all cases: NCI-60 cell line screen, 48 h
[1] = system: A549
[2] = system: ACHN
[3] = system: CAKI-1
[4] = system: CCRF-CEM
[5] = system: HCT-116
[6] = system: HOP-62
[7] = system: Hs-578T
[8] = system: IGROV-1
[9] = system: Malme-3M
[10] = system: NCI-H460
[11] = system: NCI-H522
[12] = system: OVCAR-5
[13] = system: PC-3
[14] = system: RPMI-8226
[15] = system: SK-MEL-5
[16] = system: SNB-19
[17] = system: SNB-75
[18] = system: SW-620
[19] = system: TK-10
[20] = system: SK-OV-3

Measured: GI50

O=C(c1ccc([N+](=O)[O-])cc1)N1CCCC1
inactive: [1] > 100 µM | [2] > 100 µM | [3] > 100 µM | [4] > 100 µM | [5] > 100 µM | [6] > 100 µM | [7] > 100 µM | [8] > 100 µM | [9] > 100 µM | [10] > 100 µM | [11] > 100 µM | [12] > 100 µM | [13] > 100 µM | [14] > 100 µM | [15] > 100 µM | [16] > 100 µM | [17] > 100 µM | [18] > 100 µM | [19] 86.1 µM

C=C(CCOC)CCC1CCCCC(=C)[C@H]1O (some centres undefined)
inactive: [1] > 100 µM | [2] > 100 µM | [3] > 100 µM | [4] > 100 µM | [5] > 100 µM | [6] > 100 µM | [7] > 100 µM | [8] > 100 µM | [10] > 100 µM | [11] > 100 µM | [12] > 100 µM | [13] > 100 µM | [14] > 100 µM | [15] > 100 µM | [20] > 100 µM | [16] > 100 µM | [17] > 100 µM | [18] > 100 µM | [19] > 100 µM

COC(=O)C1OC(O[C@H]2CC[C@]3(C)[C@H]4CC=C5[C@@H]6CC(C)(C)CC[C@]6(C(=O)OC6OCC(O)C(O)C6OC6OC(C)C(OC7OCC(O)C(O)C7O)C(O)C6O)[C@H](O)C[C@@]5(C)[C@]4(C)CC[C@H]3C2(C)C)C(O)C(O)C1O (some centres undefined)
inactive: [1] 3.9 µM and 3.47 µM | [2] 4.35 µM and 4.5 µM | [3] 2.61 µM and 4 µM | [5] 4.08 µM and 4.86 µM | [6] 8.85 µM and 6.27 µM | [7] 16.4 µM and 16.3 µM | [8] 15.8 µM and 11.7 µM | [11] 1.78 µM and 2.63 µM | [12] 4.93 µM and 6.59 µM | [13] 4.45 µM and 4.68 µM | [14] 4.51 µM and 5.06 µM | [15] 6.61 µM and 13.1 µM | [20] 11.4 µM and 13.4 µM | [16] 4.56 µM and 7.24 µM | [17] 4.81 µM and 8.53 µM | [18] 13.2 µM and 11.7 µM | [19] 8.15 µM and 9.68 µM

Cc1nc2ccc(Cl)cc2c2c1CCO2
inactive: [1] 63 µM | [2] 86.5 µM | [3] 43.4 µM | [4] 57.8 µM | [5] 97.5 µM | [6] > 100 µM | [7] > 100 µM | [8] 56.8 µM | [9] > 100 µM | [10] 54.2 µM | [11] > 100 µM | [13] 88.1 µM | [14] > 100 µM | [15] 68.5 µM | [16] 60.4 µM | [17] 69.3 µM | [18] > 100 µM | [19] 64.7 µM

CC1=C(O)C(=O)C2=C(C1=O)[C@@H]([C@@H](C)C/C=C/C(C)(C)O)CC[C@@H]2C
inactive: [1] 53.5 µM | [2] 31.4 µM | [3] 37.9 µM | [4] 28.8 µM | [5] 38.1 µM | [6] > 100 µM | [7] 48.6 µM | [8] 69.5 µM | [10] 55.5 µM | [11] 21.3 µM | [12] > 100 µM | [13] 51.1 µM | [14] 23.5 µM | [15] 35.2 µM | [20] > 100 µM | [16] 83.6 µM | [18] 77.4 µM

O=C1Nc2ccccc2/C1=N/Nc1c(F)c(F)c(F)c(F)c1F
inactive: [1] > 100 µM | [2] 18 µM | [3] 30.8 µM | [4] 4 µM | [5] 47.8 µM | [6] > 100 µM | [7] 86.7 µM | [8] 20.5 µM | [10] 93.3 µM | [11] 14.4 µM | [12] > 100 µM | [13] > 100 µM | [14] 3.83 µM | [15] 58.5 µM | [20] > 100 µM | [16] > 100 µM | [17] 91.4 µM | [18] 43.9 µM | [19] 22 µM

OC1[C@H](O)CN(OCc2ccccc2)C[C@@H]1O (some centres undefined)
inactive: [1] > 100 µM | [2] > 100 µM | [3] > 100 µM | [4] > 100 µM | [5] > 100 µM | [6] > 100 µM | [7] > 100 µM | [8] > 100 µM | [9] > 100 µM | [10] > 100 µM | [11] > 100 µM | [12] > 100 µM | [13] > 100 µM | [14] > 100 µM | [15] > 100 µM | [16] > 100 µM | [17] > 100 µM | [18] > 100 µM | [19] > 100 µM

CC1CCCOc2ccc(cc2)/C=N\c2ccc(cc2)CCc2ccc(cc2)/N=C\c2ccc(cc2)OCCC1
inactive: [1] > 100 µM | [2] > 100 µM | [3] > 100 µM | [4] > 100 µM | [5] > 100 µM | [6] > 100 µM | [7] > 100 µM | [8] > 100 µM | [9] > 100 µM | [10] > 100 µM | [11] > 100 µM | [12] > 100 µM | [13] > 100 µM | [14] > 100 µM | [15] > 100 µM | [16] > 100 µM | [17] > 100 µM | [18] > 100 µM | [19] > 100 µM

NS(=O)(=O)c1ccc(NS(=O)(=O)c2ccc(NC(=O)N(c3ccccc3)c3ccccc3)cc2)cc1
inactive: [1] > 100 µM | [2] > 100 µM | [3] 67 µM | [4] 2.7 µM | [5] 82.4 µM | [6] 52.8 µM | [7] > 100 µM | [8] 59 µM | [9] 27.3 µM | [10] 65.6 µM | [11] 30.5 µM | [12] > 100 µM | [13] 51.1 µM | [14] 24.8 µM | [15] 68.2 µM | [16] > 100 µM | [18] > 100 µM | [19] 50.4 µM

CNc1ccc2c(c1)Cc1ccccc1-2
inactive: [1] 22.5 µM | [2] 35.2 µM | [3] 30.6 µM | [4] 59.2 µM | [5] 56.2 µM | [6] 57.4 µM | [7] 33.3 µM | [8] 34.5 µM | [9] 37.9 µM | [10] 32.5 µM | [11] 21.9 µM | [12] 98.6 µM | [13] 32.7 µM | [14] 38.8 µM | [15] 26.8 µM | [16] 13.6 µM | [17] 52.6 µM | [18] 53.6 µM | [19] 36.6 µM
